Results published in publication PMC11280390, “Synthesis of Nitrostyrylthiazolidine-2,4-dione Derivatives Displaying Antileishmanial Potential” (Pharmaceuticals, 2024).

Row | Compound | melting point
1 | COc1cc(/C=C2\SC(=O)N(CC(N)=O)C2=O)cc(OC)c1OC [Compound 15e] | 274 to 275 °C (dec.)
2 | N#CCN1C(=O)S/C(=C\c2ccccc2)C1=O [Compound 14a, (Z)-2-(5-Benzylidenethiazolidine-2,4-dion-3-yl)acetonitrile] | 230 to 232 °C
3 | O=C(CN1C(=O)S/C(=C\c2ccccc2)C1=O)Nc1ccc([N+](=O)[O-])cc1 [Compound 26a, (Z)-2-(5-Benzylidenethiazolidine-2,4-dion-3-yl)-N-(4-nitrophenyl)acetamide] | 270 to 272 °C
4 | COc1cc(/C=C2\SC(=O)N(CC(=O)Nc3ccc(C)cc3)C2=O)cc(OC)c1OC [Compound 24e, (Z)-N-(4-Methylphenyl)-2-(5-(3,4,5-trimethoxybenzylidene)thiazolidine-2,4-dion-3-yl)acetamide] | 196 to 198 °C
5 | O=C(CN1C(=O)S/C(=C\c2ccc([N+](=O)[O-])cc2)C1=O)c1ccccc1 [Compound 16d, (Z)-5-(4-Nitrobenzylidene)-3-(2-oxo-2-phenylethyl)thiazolidine-2,4-dione] | 232 to 233 °C
6 | COc1cc(/C=C2\SC(=O)NC2=O)cc(OC)c1OC [Compound 6] | 185 to 187 °C
7 | CC(=O)CN1C(=O)S/C(=C\c2ccccc2)C1=O [Compound 13a, (Z)-5-Benzylidene-3-(2-oxopropyl)thiazolidine-2,4-dione] | 139 to 140 °C
8 | COc1cc(/C=C2\SC(=O)N(CC(=O)c3ccccc3)C2=O)cc(OC)c1OC [Compound 16e, (Z)-3-(2-Oxo-2-phenylethyl)-5-(3,4,5-trimethoxybenzylidene)thiazolidine-2,4-dione] | 187 to 189 °C
9 | CC(=O)CN1C(=O)S/C(=C\c2cccc([N+](=O)[O-])c2)C1=O [Compound 13c, (Z)-5-(3-Nitrobenzylidene)-3-(2-oxopropyl)thiazolidine-2,4-dione] | 188 to 190 °C
10 | O=C(CN1C(=O)S/C(=C\c2ccc([N+](=O)[O-])cc2)C1=O)Nc1ccccc1 [Compound 23d, (Z)-2-(5-(4-Nitrobenzylidene)thiazolidine-2,4-dion-3-yl)-N-phenylacetamide] | 259 to 261 °C
11 | COc1cc(/C=C2\SC(=O)N(CC(=O)Nc3ccccc3Cl)C2=O)cc(OC)c1OC [Compound 28e, (Z)-N-(2-Chlorophenyl)-2-(5-(3,4,5-trimethoxybenzylidene)thiazolidine-2,4-dion-3-yl)acetamide] | 222 to 223 °C
12 | NC(=O)CN1C(=O)S/C(=C\c2ccccc2[N+](=O)[O-])C1=O [Compound 15b, (Z)-2-(5-(2-Nitrobenzylidene)thiazolidine-2,4-dion-3-yl)acetamide] | 233 to 235 °C
13 | O=C(CN1C(=O)S/C(=C\c2ccccc2)C1=O)Nc1ccccc1Cl [Compound 28a, (Z)-2-(5-Benzylidenethiazolidine-2,4-dion-3-yl)-N-(2-chlorophenyl)acetamide] | 243 to 245 °C
14 | O=C(CN1C(=O)S/C(=C\c2cccc([N+](=O)[O-])c2)C1=O)Nc1ccccc1 [Compound 23c, (Z)-2-(5-(3-Nitrobenzylidene)thiazolidine-2,4-dion-3-yl)-N-phenylacetamide] | 255 to 257 °C
15 | COc1cc(/C=C2\SC(=O)N(CC(=O)Nc3ccc([N+](=O)[O-])cc3)C2=O)cc(OC)c1OC [Compound 26e, (Z)-N-(4-Nitrophenyl)-2-(5-(3,4,5-trimethoxybenzylidene)thiazolidine-2,4-dion-3-yl)acetamide] | 253 to 254 °C
16 | COc1cc(/C=C2\SC(=O)N(CC(C)=O)C2=O)cc(OC)c1OC [Compound 13e] | 139 to 140 °C
17 | CCOC(=O)CN1C(=O)S/C(=C\c2cc(OC)c(OC)c(OC)c2)C1=O [Compound 12e] | 145 to 147 °C
18 | NC(=O)CN1C(=O)S/C(=C\c2ccccc2)C1=O [Compound 15a, (Z)-2-(5-Benzylidenethiazolidine-2,4-dion-3-yl)acetamide] | 229 to 231 °C
19 | CC(=O)CN1C(=O)S/C(=C\c2ccccc2[N+](=O)[O-])C1=O [Compound 13b, (Z)-5-(2-Nitrobenzylidene)-3-(2-oxopropyl)thiazolidine-2,4-dione] | 146 to 148 °C
20 | O=C(CN1C(=O)S/C(=C\c2ccccc2)C1=O)Nc1ccccc1 [Compound 23a] | 259 to 260 °C
21 | COc1ccc(NC(=O)CN2C(=O)S/C(=C\c3cc(OC)c(OC)c(OC)c3)C2=O)cc1 [Compound 25e, (Z)-N-(4-Methoxyphenyl)-2-(5-(3,4,5-trimethoxybenzylidene)thiazolidine-2,4-dion-3-yl)acetamide] | 215 to 216 °C
22 | CC(=O)CN1C(=O)S/C(=C\c2ccc([N+](=O)[O-])cc2)C1=O [Compound 13d, (Z)-5-(4-Nitrobenzylidene)-3-(2-oxopropyl)thiazolidine-2,4-dione] | 207 to 209 °C
23 | O=C(CN1C(=O)S/C(=C\c2ccccc2)C1=O)c1ccccc1 [Compound 16a] | 182 to 183 °C
24 | COc1ccc(NC(=O)CN2C(=O)S/C(=C\c3ccc([N+](=O)[O-])cc3)C2=O)cc1 [Compound 25d, (Z)-N-(4-Methoxyphenyl)-2-(5-(4-nitrobenzylidene)thiazolidine-2,4-dion-3-yl)acetamide] | 254 to 256 °C
25 | NC(=O)CN1C(=O)S/C(=C\c2ccc([N+](=O)[O-])cc2)C1=O [Compound 15d, (Z)-2-(5-(4-Nitrobenzylidene)thiazolidine-2,4-dion-3-yl)acetamide] | 281 to 283 °C
26 | N#CCN1C(=O)S/C(=C\c2ccccc2[N+](=O)[O-])C1=O [Compound 14b, (Z)-2-(5-(2-Nitrobenzylidene)thiazolidine-2,4-dion-3-yl)acetonitrile] | 119 to 120 °C
